Earlier results in patent publication US20100087702A1, “Composition and method to modify sperm fertility and female gender ratio in mammals” (priority 2008, published 2010).

Tests used:
[1] = tested on: Hexose Monophosphate Shunt (HMS); settings: Tiffen et al., 1991
[2] = tested on: early-staged mouse embryos; settings: Williams, 1986

For `CCN(CC)c1cc2c(cc1C)Nc1ccc(N)cc1O2` [BCB, 2-methyl-3-diethylamino-7-amino phenoxazine], the “increase in oxidation of glucose through the HMS” value [1] is given as 15 fold and the “toxicity of BCB and its metabolites” value [2] is given as “relatively non-toxic”.
